From ChEMBL document CHEMBL5107987, “New naphtho/thienobenzo-triazoles with interconnected anti-inflammatory and cholinesterase inhibitory activity” (Eur J Med Chem, 2022)

Legend:
[1] = target: Acetylcholinesterase (Electrophorus electricus) (UniProt O42275); test: Inhibition of electric eel AChE using acetylthiocholine iodide as substrate pre-incubated for 5 mins followed by substrate addition at 100 uM and measured after 6 mins by Ellman's method relative to control
[2] = target: Cholinesterase (Equus caballus) (UniProt P81908); test: Inhibition of equine serum BuChE using S-butyrylthiocholine iodide as substrate pre-incubated for 5 mins followed by substrate addition at 100 uM and measured after 6 mins by Ellman's method relative to control
[3] = target: Acetylcholinesterase (Electrophorus electricus) (UniProt O42275); test: Inhibition of electric eel AChE using acetylthiocholine iodide as substrate pre-incubated for 5 mins followed by substrate addition at 500 uM and measured after 6 mins by Ellman's method relative to control
[4] = Inhibition of TNF-alpha production in LPS-stimulated human PBMC measured after 24 hrs by ELISA; assay type: functional, cell-based
[5] = Cytotoxicity against human PBMC assessed as effect on cell viability measured by Cell Titer Glo assay; assay type: toxicity, cell-based
Cholinesterase = Cholinesterase (Equus caballus, UniProt P81908); test: Inhibition of equine serum BuChE using S-butyrylthiocholine iodide as substrate pre-incubated for 5 mins followed by substrate addition and measured after 6 mins by Ellman's method
Acetylcholinesterase = Acetylcholinesterase (Electrophorus electricus, UniProt O42275); test: Inhibition of electric eel AChE using acetylthiocholine iodide as substrate pre-incubated for 5 mins followed by substrate addition and measured after 6 mins by Ellman's method
[6] = target: Cholinesterase (Equus caballus) (UniProt P81908); test: Inhibition of equine serum BuChE using S-butyrylthiocholine iodide as substrate pre-incubated for 5 mins followed by substrate addition at 500 uM and measured after 6 mins by Ellman's method relative to control
[7] = Inhibition of TNF-alpha production in LPS-stimulated human PBMC measured after 24 hrs by ELISA relative to control; assay type: functional
[8] = target: Acetylcholinesterase (Electrophorus electricus) (UniProt O42275); test: Inhibition of electric eel AChE using acetylthiocholine iodide as substrate pre-incubated for 5 mins followed by substrate addition at 1000 uM and measured after 6 mins by Ellman's method relative to control
[9] = target: Cholinesterase (Equus caballus) (UniProt P81908); test: Inhibition of equine serum BuChE using S-butyrylthiocholine iodide as substrate pre-incubated for 5 mins followed by substrate addition at 200 uM and measured after 6 mins by Ellman's method relative to control
[10] = target: Cholinesterase (Equus caballus) (UniProt P81908); test: Inhibition of equine serum BuChE using S-butyrylthiocholine iodide as substrate pre-incubated for 5 mins followed by substrate addition at 800 uM and measured after 6 mins by Ellman's method relative to control
[11] = target: Acetylcholinesterase (Electrophorus electricus) (UniProt O42275); test: Inhibition of electric eel AChE using acetylthiocholine iodide as substrate pre-incubated for 5 mins followed by substrate addition at 800 uM and measured after 6 mins by Ellman's method relative to control
[12] = target: Cholinesterase (Equus caballus) (UniProt P81908); test: Inhibition of equine serum BuChE using S-butyrylthiocholine iodide as substrate pre-incubated for 5 mins followed by substrate addition at 50 uM and measured after 6 mins by Ellman's method relative to control
[13] = target: Cholinesterase (Equus caballus) (UniProt P81908); test: Inhibition of equine serum BuChE using S-butyrylthiocholine iodide as substrate pre-incubated for 5 mins followed by substrate addition at 250 uM and measured after 6 mins by Ellman's method relative to control

Chain of Cholinesterase (Equus caballus) (P81908 whole entry): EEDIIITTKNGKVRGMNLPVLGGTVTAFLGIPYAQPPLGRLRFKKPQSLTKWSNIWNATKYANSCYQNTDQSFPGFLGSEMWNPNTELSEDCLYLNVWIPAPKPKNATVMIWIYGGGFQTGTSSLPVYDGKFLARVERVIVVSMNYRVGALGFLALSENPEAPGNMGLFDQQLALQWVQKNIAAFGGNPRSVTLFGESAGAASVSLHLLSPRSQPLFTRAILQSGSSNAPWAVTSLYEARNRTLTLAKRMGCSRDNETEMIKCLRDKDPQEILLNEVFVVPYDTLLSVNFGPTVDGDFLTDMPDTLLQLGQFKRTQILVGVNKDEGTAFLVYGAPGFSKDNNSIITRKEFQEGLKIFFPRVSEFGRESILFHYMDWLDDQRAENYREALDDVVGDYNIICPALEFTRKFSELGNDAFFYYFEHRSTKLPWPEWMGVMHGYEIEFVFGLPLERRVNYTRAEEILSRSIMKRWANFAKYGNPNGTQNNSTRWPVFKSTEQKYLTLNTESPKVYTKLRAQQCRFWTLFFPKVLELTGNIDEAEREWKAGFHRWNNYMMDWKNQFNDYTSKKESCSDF
Chain of Cholinesterase (P81908 whole entry): as above
Chain of Acetylcholinesterase (Electrophorus electricus) (O42275 24-633 limits assumed): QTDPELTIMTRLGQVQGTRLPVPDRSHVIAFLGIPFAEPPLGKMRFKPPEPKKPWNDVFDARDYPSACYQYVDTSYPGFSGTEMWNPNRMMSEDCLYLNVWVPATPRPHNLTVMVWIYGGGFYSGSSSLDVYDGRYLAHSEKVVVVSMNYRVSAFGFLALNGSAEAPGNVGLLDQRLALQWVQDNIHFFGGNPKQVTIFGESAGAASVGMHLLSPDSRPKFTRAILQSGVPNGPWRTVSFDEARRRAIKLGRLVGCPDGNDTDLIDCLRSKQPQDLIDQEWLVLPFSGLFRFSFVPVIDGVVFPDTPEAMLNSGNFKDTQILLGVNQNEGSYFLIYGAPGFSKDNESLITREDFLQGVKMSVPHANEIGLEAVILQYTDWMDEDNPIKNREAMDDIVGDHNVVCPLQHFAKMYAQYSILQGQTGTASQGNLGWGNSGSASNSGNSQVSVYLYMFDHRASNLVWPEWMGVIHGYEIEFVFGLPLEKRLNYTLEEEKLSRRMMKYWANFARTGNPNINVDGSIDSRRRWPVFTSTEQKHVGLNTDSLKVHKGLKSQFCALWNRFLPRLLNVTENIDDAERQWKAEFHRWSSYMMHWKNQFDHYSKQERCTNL
Chain of Acetylcholinesterase (O42275 whole entry): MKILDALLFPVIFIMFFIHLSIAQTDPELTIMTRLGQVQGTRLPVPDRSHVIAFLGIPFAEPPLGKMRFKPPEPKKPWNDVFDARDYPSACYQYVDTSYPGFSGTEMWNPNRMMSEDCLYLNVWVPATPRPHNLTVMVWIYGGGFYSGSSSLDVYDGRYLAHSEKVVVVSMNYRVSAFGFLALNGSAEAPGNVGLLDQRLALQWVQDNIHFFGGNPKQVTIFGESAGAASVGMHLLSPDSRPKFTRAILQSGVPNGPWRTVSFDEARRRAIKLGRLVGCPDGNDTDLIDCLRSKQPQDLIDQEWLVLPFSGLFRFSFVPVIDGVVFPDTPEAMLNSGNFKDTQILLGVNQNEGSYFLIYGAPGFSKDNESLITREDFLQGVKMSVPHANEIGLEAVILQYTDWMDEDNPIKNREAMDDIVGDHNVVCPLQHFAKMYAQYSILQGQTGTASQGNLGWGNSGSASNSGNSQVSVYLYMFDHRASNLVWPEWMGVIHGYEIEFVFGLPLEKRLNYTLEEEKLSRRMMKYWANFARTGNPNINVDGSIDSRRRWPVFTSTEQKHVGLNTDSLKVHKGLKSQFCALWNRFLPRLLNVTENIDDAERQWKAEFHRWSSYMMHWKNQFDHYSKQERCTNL

Which inhibition [1] does the source give for `O=[N+]([O-])c1ccc(-n2cc(/C=C\c3cccs3)nn2)cc1` here?
The inhibition was 34.1%.

What about the inhibition [2] of the same molecule?
The inhibition was 12.3%.

With `C(=C/c1cccs1)/c1cn(CCc2cc3ccccc3[nH]2)nn1` as the molecule, how does the inhibition [3] read?
Its inhibition is 67.4%.

What about the IC50 [4] of the same molecule?
Its IC50 is over 33 µM.

And the Activity [5]?
Its Activity is “Non-Toxic”.

And the IC50 (Cholinesterase)?
The IC50 was 234 µM.

And the IC50 (Acetylcholinesterase)?
The IC50 was 596 µM.

What about the inhibition [6] of the same molecule?
Its inhibition is 59.5%.

With `C=CCn1cc(/C=C/c2cccs2)nn1` as the molecule, how does the IC50 [4] read?
Its IC50 is over 33 µM.

And the Activity [5]?
Its Activity is “Non-Toxic”.

For `CC(C)n1nnc2ccc3ccccc3c21`, which “inhibition (INH)” value [7] is on record?
Its value is under 50%.

Which results are given for `CCCn1cc(/C=C\c2cccs2)nn1`?
inhibition [8]: 21.9%; IC50 [4]: > 33 µM; Activity [5]: Non-Toxic; inhibition [9]: 66.1%; IC50 (Cholinesterase): 95.6 µM

With `C[C@@H]1C[C@H]2[C@@H]3CCC4=CC(=O)C=C[C@]4(C)[C@@]3(F)[C@@H](O)C[C@]2(C)[C@@]1(O)C(=O)CO` [DEXAMETHASONE] as the molecule, how does the IC50 [4] read?
The IC50 was 0.0036 µM.

For `COc1ccc(Cn2nnc3ccc4ccc(OC)cc4c32)cc1`, which IC50 [4] is on record?
The IC50 was 2.2 µM.

And the Activity [5]?
Its Activity is “Non-Toxic”.

Which results are given for `c1ccc2[nH]c(CCn3nnc4ccc5sccc5c43)cc2c1`?
Activity [5]: Non-Toxic; inhibition (INH) [7]: <50%

Which results are given for `COc1ccc(Cn2cc(/C=C/c3ccccc3C#N)nn2)cc1`?
IC50 [4]: > 33 µM; Activity [5]: Non-Toxic

Which IC50 [4] does the source give for `COc1ccc(Cn2cc(/C=C\c3ccccc3C#N)nn2)cc1` here?
Its IC50 is over 33 µM.

What about the Activity [5] of the same molecule?
The Activity was “Non-Toxic”.

With `COc1ccc(Cn2nnc3ccc4cccc(C#N)c4c32)cc1` as the molecule, how does the “inhibition (INH)” value [7] read?
Its value is under 50%.

For `COc1ccc2ccc3nnn(CCCCO)c3c2c1`, which IC50 [4] is on record?
The IC50 was 7.9 µM.

And the Activity [5]?
The Activity was “Non-Toxic”.

With `OCCCCn1cc(/C=C\c2cccs2)nn1` as the molecule, how does the inhibition [10] read?
The inhibition was 48.7%.

What about the inhibition [11] of the same molecule?
Its inhibition is 45.2%.

With `CC(c1ccccc1)n1cc(/C=C\c2cccs2)nn1` (stereo not drawn) as the molecule, how does the IC50 [4] read?
The IC50 was over 33 µM.

And the Activity [5]?
Its Activity is “Non-Toxic”.

For `C=CCn1cc(/C=C\c2cccs2)nn1`, which IC50 [4] is on record?
The IC50 was over 33 µM.

What about the Activity [5] of the same molecule?
Its Activity is “Non-Toxic”.

What does the source list for `O=[N+]([O-])c1ccc(-n2nnc3ccc4sccc4c32)cc1`?
inhibition [3]: 43.3%; inhibition (INH) [7]: <50%; IC50 (Cholinesterase): 449 µM; inhibition [6]: 53.4%

Which IC50 [4] does the source give for `CC(C)n1nnc2ccc3ccc(Cl)cc3c21` here?
Its IC50 is 22.2 µM.

And the Activity [5]?
Its Activity is “Non-Toxic”.

For `CCCn1nnc2ccc3sccc3c21`, which inhibition [8] is on record?
The inhibition was 56.2%.

And the “inhibition (INH)” value [7]?
The value was under 50%.

What about the inhibition [9] of the same molecule?
Its inhibition is 91.7%.

With `C=CCn1nnc2ccc3sccc3c21` as the molecule, how does the inhibition [3] read?
The inhibition was 76.9%.

What about the inhibition [12] of the same molecule?
The inhibition was 80%.

And the IC50 [4]?
Its IC50 is 27.7 µM.

And the Activity [5]?
Its Activity is “Non-Toxic”.

And the IC50 (Cholinesterase)?
The IC50 was 3.8 µM.

What about the IC50 (Acetylcholinesterase) of the same molecule?
The IC50 was 56.2 µM.

For `CCCn1cc(/C=C/c2cccs2)nn1`, which inhibition [3] is on record?
The inhibition was 36.9%.

And the IC50 [4]?
The IC50 was over 33 µM.

What about the Activity [5] of the same molecule?
Its Activity is “Non-Toxic”.

What about the inhibition [13] of the same molecule?
The inhibition was 79.2%.
